Activity data for three compounds are collected here from ChEMBL document CHEMBL5715954, “Silencing c-Myc translation as a therapeutic strategy through targeting PI3Kδ and CK1ε in hematological malignancies” (Blood, 2017).

Structures are written as SMILES.

Design in all cases: scale not given: the % may be the effect or the level left
The target of experiment [1] is T1, Dual specificity mitogen-activated protein kinase kinase 3 (Homo sapiens) (UniProt P46734).
T1 sequence (whole entry): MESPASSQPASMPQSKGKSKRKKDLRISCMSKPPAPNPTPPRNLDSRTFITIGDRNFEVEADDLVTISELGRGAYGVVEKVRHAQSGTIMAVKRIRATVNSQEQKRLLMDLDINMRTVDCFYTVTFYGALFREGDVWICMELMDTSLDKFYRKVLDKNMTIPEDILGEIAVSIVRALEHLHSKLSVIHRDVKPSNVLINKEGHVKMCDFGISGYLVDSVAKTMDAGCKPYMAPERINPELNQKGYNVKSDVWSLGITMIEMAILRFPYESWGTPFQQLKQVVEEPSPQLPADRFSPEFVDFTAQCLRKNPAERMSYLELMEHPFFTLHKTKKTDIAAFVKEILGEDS
The experiment is described as follows: Inhibition of human MEK3 assessed as enzyme activity at 1 uM using p38a (K53A) as substrate preincubated for 20 mins followed by [gamma-33P]-ATP addition and measured after 120 mins by radiometric Hot-SpotSM Kinase assay relative to control.

Experiment [2] has as its target High affinity nerve growth factor receptor (Homo sapiens) (UniProt P04629). The experiment can be described thus: Inhibition of human TRKA assessed as enzyme activity at 1 uM using poly[Glu:Tyr] (4:1) as substrate preincubated for 20 mins followed by [gamma-33P]-ATP addition and measured after 120 mins by radiometric Hot-SpotSM Kinase assay relative to control.
The target of experiment [3] is T2, cGMP-dependent protein kinase 2 (Homo sapiens) (UniProt Q13237).
T2 sequence (whole entry): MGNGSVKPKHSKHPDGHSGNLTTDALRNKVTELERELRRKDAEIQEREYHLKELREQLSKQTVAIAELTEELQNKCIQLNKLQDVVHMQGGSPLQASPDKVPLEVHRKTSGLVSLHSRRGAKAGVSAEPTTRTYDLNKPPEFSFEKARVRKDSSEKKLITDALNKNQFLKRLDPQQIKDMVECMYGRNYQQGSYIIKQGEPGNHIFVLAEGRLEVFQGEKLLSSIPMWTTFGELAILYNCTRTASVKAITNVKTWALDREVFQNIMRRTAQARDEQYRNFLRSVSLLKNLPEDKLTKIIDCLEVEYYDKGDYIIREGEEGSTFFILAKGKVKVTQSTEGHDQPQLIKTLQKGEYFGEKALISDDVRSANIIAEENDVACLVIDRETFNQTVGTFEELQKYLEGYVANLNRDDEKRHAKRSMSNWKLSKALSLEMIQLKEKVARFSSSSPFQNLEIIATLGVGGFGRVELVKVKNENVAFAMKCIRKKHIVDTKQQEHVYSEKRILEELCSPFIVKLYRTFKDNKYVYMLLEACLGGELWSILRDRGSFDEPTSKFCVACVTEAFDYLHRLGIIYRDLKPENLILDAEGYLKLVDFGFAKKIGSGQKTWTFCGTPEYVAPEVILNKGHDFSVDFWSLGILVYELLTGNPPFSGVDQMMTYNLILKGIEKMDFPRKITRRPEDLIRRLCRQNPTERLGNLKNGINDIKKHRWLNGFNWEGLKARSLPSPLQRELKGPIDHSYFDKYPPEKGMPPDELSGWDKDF
The experiment is described as follows: Inhibition of human PKG2 assessed as enzyme activity at 1 uM using LRRASLG as substrate preincubated for 20 mins followed by [gamma-33P]-ATP addition and measured after 120 mins by radiometric Hot-SpotSM Kinase assay relative to control.

Experiment [4] addresses T3, Serine/threonine-protein kinase STK11 (Homo sapiens) (UniProt Q15831).
T3 sequence (whole entry): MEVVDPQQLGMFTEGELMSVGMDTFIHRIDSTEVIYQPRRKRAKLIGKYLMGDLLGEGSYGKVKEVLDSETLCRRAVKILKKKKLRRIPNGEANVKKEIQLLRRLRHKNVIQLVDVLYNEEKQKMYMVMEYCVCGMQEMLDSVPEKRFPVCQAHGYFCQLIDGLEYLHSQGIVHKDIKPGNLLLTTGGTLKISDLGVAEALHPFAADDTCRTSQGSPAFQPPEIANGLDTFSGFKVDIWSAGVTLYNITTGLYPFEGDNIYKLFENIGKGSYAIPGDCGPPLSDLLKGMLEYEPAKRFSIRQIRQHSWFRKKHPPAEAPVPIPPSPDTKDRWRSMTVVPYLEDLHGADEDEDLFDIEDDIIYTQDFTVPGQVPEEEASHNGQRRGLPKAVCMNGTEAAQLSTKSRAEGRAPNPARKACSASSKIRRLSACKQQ
The experiment is described as follows: Inhibition of human LKB1 assessed as enzyme activity at 1 uM using LSNLYHQGKFLQTFCGSPLYRRR as substrate preincubated for 20 mins followed by [gamma-33P]-ATP addition and measured after 120 mins by radiometric Hot-SpotSM Kinase assay relative to control.

In experiment [5] the target is Insulin-like growth factor 1 receptor (Homo sapiens) (UniProt P08069). The experiment is described as follows: Inhibition of human IGF1R assessed as enzyme activity at 1 uM using KKKSPGEYVNIEFG as substrate preincubated for 20 mins followed by [gamma-33P]-ATP addition and measured after 120 mins by radiometric Hot-SpotSM Kinase assay relative to control.
Chain of Insulin-like growth factor 1 receptor (Homo sapiens) (P08069 31-736 limits assumed): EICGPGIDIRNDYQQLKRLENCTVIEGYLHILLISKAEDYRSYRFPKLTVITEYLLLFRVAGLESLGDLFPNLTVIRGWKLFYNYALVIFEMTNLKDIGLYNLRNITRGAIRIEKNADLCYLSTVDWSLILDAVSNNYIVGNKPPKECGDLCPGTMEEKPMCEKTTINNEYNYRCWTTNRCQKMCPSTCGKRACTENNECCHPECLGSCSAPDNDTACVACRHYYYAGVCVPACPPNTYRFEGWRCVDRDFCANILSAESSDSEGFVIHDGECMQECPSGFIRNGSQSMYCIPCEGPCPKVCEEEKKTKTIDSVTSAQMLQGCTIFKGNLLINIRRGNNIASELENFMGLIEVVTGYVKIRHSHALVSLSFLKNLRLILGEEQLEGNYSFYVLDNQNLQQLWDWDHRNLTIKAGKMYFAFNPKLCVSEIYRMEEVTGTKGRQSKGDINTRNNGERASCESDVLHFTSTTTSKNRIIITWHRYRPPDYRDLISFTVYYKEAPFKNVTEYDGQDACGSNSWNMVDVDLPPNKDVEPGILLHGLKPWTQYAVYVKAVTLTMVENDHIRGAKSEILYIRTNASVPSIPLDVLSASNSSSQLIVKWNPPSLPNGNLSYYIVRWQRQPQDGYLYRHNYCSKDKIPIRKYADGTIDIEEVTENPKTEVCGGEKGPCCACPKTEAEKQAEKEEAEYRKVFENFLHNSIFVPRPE
Chain of Insulin-like growth factor 1 receptor (Homo sapiens) (P08069 741-1367 limits assumed): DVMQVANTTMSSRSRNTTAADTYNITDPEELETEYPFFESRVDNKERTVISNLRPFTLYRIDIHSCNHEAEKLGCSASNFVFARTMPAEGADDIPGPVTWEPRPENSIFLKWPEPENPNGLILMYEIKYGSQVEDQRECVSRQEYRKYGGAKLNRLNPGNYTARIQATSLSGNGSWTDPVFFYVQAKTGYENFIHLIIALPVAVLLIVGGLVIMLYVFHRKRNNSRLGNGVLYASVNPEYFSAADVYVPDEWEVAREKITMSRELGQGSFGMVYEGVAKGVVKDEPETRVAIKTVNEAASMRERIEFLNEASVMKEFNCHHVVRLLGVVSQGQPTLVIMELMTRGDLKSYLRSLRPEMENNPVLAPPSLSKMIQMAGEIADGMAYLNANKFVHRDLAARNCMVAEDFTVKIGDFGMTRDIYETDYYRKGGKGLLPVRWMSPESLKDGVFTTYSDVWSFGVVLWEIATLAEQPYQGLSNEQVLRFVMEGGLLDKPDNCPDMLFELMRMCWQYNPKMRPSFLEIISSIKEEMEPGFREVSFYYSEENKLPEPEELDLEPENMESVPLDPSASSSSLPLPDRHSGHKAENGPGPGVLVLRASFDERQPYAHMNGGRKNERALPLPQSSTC
The target of experiment [6] is T4, Testis-specific serine/threonine-protein kinase 2 (Homo sapiens) (UniProt Q96PF2).
T4 sequence (whole entry): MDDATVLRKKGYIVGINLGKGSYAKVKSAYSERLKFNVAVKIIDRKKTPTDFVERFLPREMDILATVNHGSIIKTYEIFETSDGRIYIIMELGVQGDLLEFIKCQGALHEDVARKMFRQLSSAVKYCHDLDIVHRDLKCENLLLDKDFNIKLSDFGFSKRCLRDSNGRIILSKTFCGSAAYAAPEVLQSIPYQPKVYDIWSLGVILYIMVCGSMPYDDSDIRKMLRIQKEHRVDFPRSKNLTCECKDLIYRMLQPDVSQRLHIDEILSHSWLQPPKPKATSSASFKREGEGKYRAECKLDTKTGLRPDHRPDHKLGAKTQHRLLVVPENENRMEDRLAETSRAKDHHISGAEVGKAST
The experiment can be described thus: Inhibition of human TSSK2 assessed as enzyme activity at 1 uM using KKKVSRSGLYRSPSMPENLNRPR as substrate preincubated for 20 mins followed by [gamma-33P]-ATP addition and measured after 120 mins by radiometric Hot-SpotSM Kinase assay relative to control.

Experiment [7] deals with Myosin light chain kinase, smooth muscle (Homo sapiens) (UniProt Q15746). The experiment can be described thus: Inhibition of human MLCK assessed as enzyme activity at 1 uM using KKLNRTLSFAEPG as substrate preincubated for 20 mins followed by [gamma-33P]-ATP addition and measured after 120 mins by radiometric Hot-SpotSM Kinase assay relative to control.
Chain of Myosin light chain kinase, smooth muscle (Homo sapiens) (Q15746 whole entry): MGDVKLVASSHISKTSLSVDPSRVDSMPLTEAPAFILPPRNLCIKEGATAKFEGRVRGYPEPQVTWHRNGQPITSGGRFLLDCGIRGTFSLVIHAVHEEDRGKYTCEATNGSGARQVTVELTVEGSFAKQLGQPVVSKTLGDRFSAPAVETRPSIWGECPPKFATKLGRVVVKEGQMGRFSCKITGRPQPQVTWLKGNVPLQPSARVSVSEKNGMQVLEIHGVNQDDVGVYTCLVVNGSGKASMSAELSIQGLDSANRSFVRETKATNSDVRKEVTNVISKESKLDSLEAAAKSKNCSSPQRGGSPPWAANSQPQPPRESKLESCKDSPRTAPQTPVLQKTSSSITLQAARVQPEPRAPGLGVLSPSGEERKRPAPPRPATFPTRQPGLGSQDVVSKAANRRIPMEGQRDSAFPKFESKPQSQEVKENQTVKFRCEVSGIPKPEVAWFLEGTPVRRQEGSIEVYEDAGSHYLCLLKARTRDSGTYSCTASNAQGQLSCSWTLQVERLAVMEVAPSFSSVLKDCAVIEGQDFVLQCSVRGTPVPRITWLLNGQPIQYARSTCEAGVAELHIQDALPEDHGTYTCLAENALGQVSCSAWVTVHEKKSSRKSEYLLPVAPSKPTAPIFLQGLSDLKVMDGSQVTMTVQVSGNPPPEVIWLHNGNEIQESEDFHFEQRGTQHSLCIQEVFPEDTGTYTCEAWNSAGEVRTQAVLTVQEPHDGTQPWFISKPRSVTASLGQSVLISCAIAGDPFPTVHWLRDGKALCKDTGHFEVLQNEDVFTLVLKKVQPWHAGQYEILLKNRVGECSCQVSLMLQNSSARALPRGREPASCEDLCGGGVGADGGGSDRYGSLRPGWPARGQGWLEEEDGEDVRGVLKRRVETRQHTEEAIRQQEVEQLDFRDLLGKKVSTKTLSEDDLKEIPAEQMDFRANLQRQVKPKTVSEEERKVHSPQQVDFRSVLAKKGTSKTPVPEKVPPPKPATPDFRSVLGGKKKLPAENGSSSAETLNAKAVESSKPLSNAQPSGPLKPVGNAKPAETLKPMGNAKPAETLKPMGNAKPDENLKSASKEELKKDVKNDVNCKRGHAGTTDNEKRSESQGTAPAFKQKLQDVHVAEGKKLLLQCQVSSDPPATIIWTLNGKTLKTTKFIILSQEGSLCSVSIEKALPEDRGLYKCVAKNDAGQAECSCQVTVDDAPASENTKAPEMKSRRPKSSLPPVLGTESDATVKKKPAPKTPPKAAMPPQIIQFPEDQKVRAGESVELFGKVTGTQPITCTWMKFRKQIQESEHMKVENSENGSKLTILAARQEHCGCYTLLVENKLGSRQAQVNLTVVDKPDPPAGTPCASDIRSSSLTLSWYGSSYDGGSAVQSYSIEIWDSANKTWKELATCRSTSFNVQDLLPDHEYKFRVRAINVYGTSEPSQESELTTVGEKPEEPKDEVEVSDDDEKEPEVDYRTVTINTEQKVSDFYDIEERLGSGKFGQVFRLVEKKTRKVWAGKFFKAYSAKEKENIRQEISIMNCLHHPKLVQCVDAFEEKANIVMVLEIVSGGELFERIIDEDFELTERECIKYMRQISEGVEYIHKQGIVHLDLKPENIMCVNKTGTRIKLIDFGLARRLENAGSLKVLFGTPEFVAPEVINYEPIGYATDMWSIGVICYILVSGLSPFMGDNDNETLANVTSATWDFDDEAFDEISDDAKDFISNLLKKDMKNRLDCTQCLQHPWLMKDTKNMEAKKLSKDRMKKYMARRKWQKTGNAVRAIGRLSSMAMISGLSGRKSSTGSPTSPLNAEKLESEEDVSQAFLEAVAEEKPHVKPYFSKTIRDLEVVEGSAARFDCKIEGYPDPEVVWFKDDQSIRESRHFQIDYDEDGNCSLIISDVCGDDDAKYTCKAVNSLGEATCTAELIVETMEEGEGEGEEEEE
Experiment [8] addresses Protein-tyrosine kinase 2-beta (Homo sapiens) (UniProt Q14289). The experiment can be described thus: Inhibition of human PYK2 assessed as enzyme activity at 1 uM using poly[Glu:Tyr] (4:1) as substrate preincubated for 20 mins followed by [gamma-33P]-ATP addition and measured after 120 mins by radiometric Hot-SpotSM Kinase assay relative to control.

Chain of High affinity nerve growth factor receptor (Homo sapiens) (P04629 33-796 limits assumed): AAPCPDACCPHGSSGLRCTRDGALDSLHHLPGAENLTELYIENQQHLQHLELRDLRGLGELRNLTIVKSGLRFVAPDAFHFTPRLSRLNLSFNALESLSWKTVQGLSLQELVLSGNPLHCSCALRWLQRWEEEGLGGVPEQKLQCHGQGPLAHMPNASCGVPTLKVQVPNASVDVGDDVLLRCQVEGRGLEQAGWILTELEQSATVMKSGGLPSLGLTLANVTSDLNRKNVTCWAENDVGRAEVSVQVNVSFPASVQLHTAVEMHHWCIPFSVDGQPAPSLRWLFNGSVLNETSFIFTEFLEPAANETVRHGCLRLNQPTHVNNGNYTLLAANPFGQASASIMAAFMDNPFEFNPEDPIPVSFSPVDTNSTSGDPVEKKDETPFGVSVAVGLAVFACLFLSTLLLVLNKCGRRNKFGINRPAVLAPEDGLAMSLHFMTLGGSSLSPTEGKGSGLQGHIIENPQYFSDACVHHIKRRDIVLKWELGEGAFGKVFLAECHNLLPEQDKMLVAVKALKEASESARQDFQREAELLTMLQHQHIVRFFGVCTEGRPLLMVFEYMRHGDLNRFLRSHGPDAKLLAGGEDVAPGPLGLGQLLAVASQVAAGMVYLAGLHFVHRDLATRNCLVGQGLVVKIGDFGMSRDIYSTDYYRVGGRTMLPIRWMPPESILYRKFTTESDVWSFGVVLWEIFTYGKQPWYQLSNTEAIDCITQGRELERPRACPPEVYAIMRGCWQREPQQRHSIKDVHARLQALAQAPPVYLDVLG
Chain of Protein-tyrosine kinase 2-beta (Homo sapiens) (Q14289 whole entry, looked up): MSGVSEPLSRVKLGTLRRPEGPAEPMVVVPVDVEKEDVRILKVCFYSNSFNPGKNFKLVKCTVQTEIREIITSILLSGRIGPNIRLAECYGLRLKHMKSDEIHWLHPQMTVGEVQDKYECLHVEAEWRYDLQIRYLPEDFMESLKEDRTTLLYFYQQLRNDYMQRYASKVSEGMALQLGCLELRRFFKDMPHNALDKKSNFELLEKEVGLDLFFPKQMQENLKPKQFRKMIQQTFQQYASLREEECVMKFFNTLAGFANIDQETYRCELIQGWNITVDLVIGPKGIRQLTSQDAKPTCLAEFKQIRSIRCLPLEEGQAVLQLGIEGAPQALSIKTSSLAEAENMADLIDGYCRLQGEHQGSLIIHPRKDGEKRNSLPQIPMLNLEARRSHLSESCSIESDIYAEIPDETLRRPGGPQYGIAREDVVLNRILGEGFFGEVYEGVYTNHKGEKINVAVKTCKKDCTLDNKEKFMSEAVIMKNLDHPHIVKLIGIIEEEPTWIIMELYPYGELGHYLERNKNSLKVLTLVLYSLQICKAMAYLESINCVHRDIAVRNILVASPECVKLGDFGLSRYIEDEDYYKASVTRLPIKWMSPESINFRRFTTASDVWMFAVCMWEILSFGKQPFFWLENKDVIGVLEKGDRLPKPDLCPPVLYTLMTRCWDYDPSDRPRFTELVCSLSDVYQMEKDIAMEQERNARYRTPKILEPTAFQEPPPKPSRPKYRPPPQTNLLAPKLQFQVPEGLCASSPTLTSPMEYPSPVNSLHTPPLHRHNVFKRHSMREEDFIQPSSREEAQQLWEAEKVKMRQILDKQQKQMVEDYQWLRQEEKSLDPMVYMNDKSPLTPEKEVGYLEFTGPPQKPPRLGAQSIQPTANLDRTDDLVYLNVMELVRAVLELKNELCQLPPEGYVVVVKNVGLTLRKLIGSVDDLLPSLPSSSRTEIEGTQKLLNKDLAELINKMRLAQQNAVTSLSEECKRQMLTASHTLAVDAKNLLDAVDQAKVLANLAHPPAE

Turning to `C[C@H](Nc1ncnc2nc[nH]c12)c1cc2cccc(Cl)c2c(=O)n1-c1ccccc1`, the Activity is 108% in experiment [1]; 87.3% in experiment [2]; 99.8% in experiment [3]; 93% in experiment [4]; 102% in experiment [5]; 98% in experiment [6]. Also, the Activity amounted to 91.7% in experiment [7] and 99.5% in experiment [8].
For `CC[C@H](Nc1ncnc2[nH]cnc12)c1nc2cccc(F)c2c(=O)n1-c1ccccc1`, the Activity is 108% in experiment [1]; 91% in experiment [2]; 99.7% in experiment [3]; 104% in experiment [4]; 91.5% in experiment [5]; 104% in experiment [6]. Also, the Activity in experiment [7] worked out at 96.1%; in experiment [8], 101%.
As to `CC(C)Oc1ccc(-c2nn([C@@H](C)c3oc4ccc(F)cc4c(=O)c3-c3cccc(F)c3)c3ncnc(N)c23)cc1F` [UMBRALISIB], the Activity turned out to be 105% in experiment [1]; 89% in experiment [2]; 102% in experiment [3]; 100% in experiment [4]; 96.5% in experiment [5]; 100% in experiment [6]. For the same compound, the Activity in experiment [7] worked out at 92.4%; in experiment [8], 102%.
